“Also recorded” adds a separate entry of the source.
How the values were obtained:
Type in all cases: biochemical
GLTP [1] = target: T1, GLTP (Homo sapiens, UniProt Q9NZD2); experiment: FRET lipid transfer control with DHPC in assay buffer, ethanol-injection donors and sonicated acceptors; settings: DHPC 352 μM and 672 μM in assay buffer; ethanol-injection donors, sonicated acceptors (5×)
T1 construct: 6xHis-SUMO (N, cleaved yes); made in house; host or cells: E. coli BL21 (DE3)-pLysS or -Star
T1 sequence (Q9NZD2 1-209): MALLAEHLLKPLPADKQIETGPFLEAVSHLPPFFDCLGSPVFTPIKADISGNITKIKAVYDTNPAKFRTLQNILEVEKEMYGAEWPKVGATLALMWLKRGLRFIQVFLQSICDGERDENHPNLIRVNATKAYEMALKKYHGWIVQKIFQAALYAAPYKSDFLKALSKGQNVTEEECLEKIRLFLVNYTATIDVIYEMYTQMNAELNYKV
Description: Small phosphatidylcholine vesicles (25-40 nm diameters) have typically been used as model membranes to assess lipid inter-bilayer transfer because of the faster transfer rates compared to those obtained using larger vesicles. Different donor and acceptor combinations were tested involving either small vesicles and/or 0.5 q-value bicelle dilution vesicles (bd-vesicles) to determine which combination produced the fastest intermembrane transfer rates. […] When the donor vesicles were produced by sonication, sphingolipid transfer rates were markedly slowed regardless of whether the acceptors were bd-vesicles or sonicated vesicles. […] Thus, similar high assay sensitivity can be achieved using the bicelle-to-bicelle transfer conditions as for vesicle-to-vesicle transfer conditions. […]
(§1) Real-time intermembrane transfer rates of fluorescent sphingolipids were obtained by Förster resonance energy transfer (FRET) using a SPEX FluoroLog3 spectrofluorometer (Horiba Scientific, Ltd., Kyoto, Japan), with excitation and emission band passes of 2 nm and a stirred (˜100 rpm), temperature-controlled (25±0.1° C.) sample cuvette holder. […] Either sonicated POPC vesicles or b-d POPC/DHPC model membranes served as receiver (acceptor) model membranes, which produced minimal change in fluorescence signal when added in excess (Mattjus et al., 1999, Anal. Biochem. 268:297-304). […]

GFP-GLTP = experiment: Bicelle-dilution FRET lipid transfer assay with HeLa cell lysate; settings: lysate of transfected HeLa cells, 10 μl aliquots; donor q=0.5, acceptor q=0.5
Description: (§2) FIG. 14. Bicelle-dilution-model-membrane-assay detection of transfer activity by GLTP and CPTP expressed in HeLa cells after transient transfection with GFP-GLTP or GFP-CPTP. Cells were disrupted by brief probe sonication (30 sec×2) on ice. Cell supernatants were recovered by benchtop centrifugation (5 min @ 12,000 rpm) at 4° C. and then 10 μl aliquots were assayed for LTP activity. (Donor: q=0.5; Acceptor: q=0.5).
(§3) HeLa cells were plated on 100-mm dishes and transfected with different vectors using Lipofectamine 2000 (Invitrogen, Carlsbad, Calif.). At 24 hours post-transfection, cells were harvested by trypsinization, washed with phosphate-buffered saline (PBS) by benchtop centrifugation and then suspended in PBS buffer (200 μl). Disruption of the HeLa cells was accomplished by brief probe sonication (2×30 seconds) on ice. Cell supernatants were recovered by benchtop centrifugation (5 minutes at 12,000 rpm) at 4° C. and 10 μl aliquots were assayed for SLTP activity using donor bicelle-dilution vesicles containing either Me4-BODIPY-GalCer or Me4-BODIPY-C1P along with C18-DiI.

GFP-CPTP = experiment: as above; settings: lysate of transfected HeLa cells, 10 μl aliquots; donor q=0.5, acceptor q=0.5
GFP-CPTP, sequence (Q5TA50 whole entry): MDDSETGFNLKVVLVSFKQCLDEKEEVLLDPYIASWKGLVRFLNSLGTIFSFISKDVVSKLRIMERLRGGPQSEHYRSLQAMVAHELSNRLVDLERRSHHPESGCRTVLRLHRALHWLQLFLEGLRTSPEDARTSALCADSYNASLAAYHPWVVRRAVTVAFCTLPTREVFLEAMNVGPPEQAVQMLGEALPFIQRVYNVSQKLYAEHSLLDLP
Description: as §2, §3

GLTP [2] = target: T1, GLTP; experiment: Bicelle-dilution FRET lipid transfer assay, lipid specificity; settings: for transfer by GLTP between bd donors and acceptors: donor q=0.5, acceptor q=0.5
Description: (§4) For experiments requiring ˜10 kinetic assays, donor stock lipid mixtures (0.5 q-value) were prepared by combining POPC (0.39 μmol), BODIPY-15-SL (0.004 μmol), DiI-C18 (0.006 μmol) and DHPC (0.8 μmol) from stock solvent solutions of hexane/ethanol (9:1) or chloroform/methanol (8:2). Acceptor stock lipid mixtures (0.5 q-value) were prepared by combining POPC (2 μmol) and DHPC (4 μmol) from stock solvent solutions. Total solvent volume in the clean glass vials containing inverted conical bottoms was approximately 100 μl. For other q-value stocks, the amount of DHPC was adjusted accordingly. Dry films of the lipid mixtures were obtained using a stream of nitrogen to evaporate all solvent at room temperature. The dry lipid films were hydrated by adding 200 μl of assay buffer (10 mM potassium phosphate, pH 6.6, 150 mM NaCl, and 0.2% EDTA) and then vortexed vigorously for at least five minutes to achieve optical clarity. For stocks with q-values of 1 or 2, lipid mixtures were not only vortexed vigorously but also sonicated briefly (2 to 3 minutes). All stocks were equilibrated overnight at room temperature prior to use in the lipid transfer assay regardless of q-value [q-value for donors=(POPC+BODIPY-15-SL+DiIC18)/DHPC; q-value for acceptors=POPC/DHPC]. Immediately prior to use in the FRET lipid transfer assay, donor and acceptor stocks were centrifuged for 10 minutes at 13,000 rpm. The FRET lipid transfer assay as performed as follows: donor stock (20 μl) was diluted into a stirred temperature-controlled cuvette containing assay buffer an equilibrated for two minutes to ensure a stable signal response. Next, acceptor stock (20 μl was diluted into the stirred cuvette and equilibrated for four minutes prior to initiating sphingolipid transfer by adding lipid transfer protein (2 μg) to a final cuvette volume of 2.5 ml. The total lipid concentration was 288 μM for assays using a 5:1 acceptor-to-donor ratio and was higher when more acceptors were added to increase transfer equilibrium from the donors.
(§5) Real-time intermembrane transfer rates of fluorescent sphingolipids were obtained by Förster resonance energy transfer (FRET) using a SPEX FluoroLog3 spectrofluorometer (Horiba Scientific, Ltd., Kyoto, Japan), with excitation and emission band passes of 2 nm and a stirred (˜100 rpm), temperature-controlled (25±0.1° C.) sample cuvette holder. All fluorescent lipids were localized initially to the SL-source (donor) vesicles (formed by rapid ethanol injection or probe sonication) or SL-source (donor) b-d model membranes. Minimal BODIPY-lipid emission occurred upon excitation (460 nm) due to resonance energy transfer to nearby C18-DiI. Either sonicated POPC vesicles or b-d POPC/DHPC model membranes served as receiver (acceptor) model membranes, which produced minimal change in fluorescence signal when added in excess (Mattjus et al., 1999, Anal. Biochem. 268:297-304). The final receiver (acceptor) vesicle concentration in the FRET lipid transfer assay was ˜240 μM to 1440 μM, which was five-fold to 30-fold higher than the SL-source (donor) vesicle concentration. Protein addition triggered a sudden, hyperbolic increase in BODIPY emission intensity (503 nm) as FRET decreased due to protein transport of fluorescent glycolipids from SL-source (donor) vesicles to receiver (acceptor) vesicles, creating separation from nontransferable C18-DiI lipid, as the protein delivers the BODIPY-SL to the excess POPC receiver vesicles or POPC/DHPC bicelles. Addition of Tween-20 detergent after extended incubation provided a measure of maximum intensity achievable by “infinite” fluorophore separation.

ACD11 [3] = target: T2, ACD11 (Arabidopsis thaliana, UniProt O64587); experiment: as above; settings: donor q=0.5, acceptor q=0.5
T2 construct: 6xHis-SUMO (N, cleaved yes); made in house; host or cells: E. coli BL21 (DE3)-pLysS or -Star
T2 sequence (O64587 1-206): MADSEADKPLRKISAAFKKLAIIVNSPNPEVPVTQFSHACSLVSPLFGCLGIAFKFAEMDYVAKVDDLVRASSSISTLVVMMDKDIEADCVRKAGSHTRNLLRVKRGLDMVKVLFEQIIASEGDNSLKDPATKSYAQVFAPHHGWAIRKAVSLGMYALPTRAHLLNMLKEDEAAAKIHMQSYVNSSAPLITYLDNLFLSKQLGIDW
Description: as §4, §5

ACD11 [4] = target: T2, ACD11; experiment: Bicelle-dilution FRET assay, competitive inhibition of BODIPY-C1P transfer; settings: increasing concentrations in donor bd-vesicles; donor q=0.5, acceptor q=0.5
From the text: The C1P derivative, diethyl-C1P, can inhibit cytosolic phospholipase A2α (cPLA2α) activity when the C1P acyl chain is short—e.g., C2-diethyl-C1P. The inhibition of cPLA2α by C2-diethyl-C1P presumably occurs via interaction with the cPLA2α C2-domain, which contains a C1P binding site that activates cPLA2α by enhancing translocation to membranes. To date, no inhibitors of C1P transfer proteins (e.g., CPTP and ACD11) have been reported. The bicelle-dilution FRET assay was used to test whether C2-diethyl-C1P can inhibit the plant CPTP ortholog, ACD11. […]
as §1

Row | Molecule | bd-vesicle-to-bd-vesicle transfer by GFP-GLTP (GFP-GLTP) | transfer by GLTP between bd donors and acceptors (GLTP [2]) | transfer by ACD11 between bd donors and acceptors (ACD11 [3]) | further results
1 | CCCCCC(=O)OC[C@H](COP(=O)([O-])OCC[N+](C)(C)C)OC(=O)CCCCC [DHPC, 1,2-hexanoyl-sn-glycero-3-phosphocholine] |  |  |  | effect on GLTP transfer rate of Me4-BODIPY-GalCer (GLTP [1]): Lack of significant effect; also recorded: Minimal affect
2 | Me4-BODIPY-15-ceramide-1-phosphate [Me4-BODIPY C1P] | not | not | specifically transfers | bd-vesicle-to-bd-vesicle transfer by GFP-CPTP (GFP-CPTP): transfer; transfer by ACD11 between bd donors and acceptors (ACD11 [3]; listed as BODIPY-C1P): transfer
3 | Me4-BODIPY-15-galactosylceramide [Me4-BODIPY GalCer] | transfer | is detected | not | transfer equilibrium by GLTP (GLTP [2]; bicelle-dilution vesicles, 100% estimated by Tween-20 solubilization): ~70%; transfer by GLTP between bd donors and acceptors (GLTP [2]; listed as BODIPY-GalCer): transfer
4 | ceramide-1-phosphate [C1P] |  |  |  | competition effect on ACD11-mediated transfer rates of Me4-BODIPY C1P (ACD11 [4]): Slowing of ACD11 transfer of BODIPY-C1P; also recorded: slow the inter-bicelles transfer rates
